The text below walks through data of article PMC8999638, “Identification of Entry Inhibitors against Delta and Omicron Variants of SARS-CoV-2” (International Journal of Molecular Sciences, 2022).

Like-named read-outs stand apart in the source and are kept apart here.

In data set [1] the target is RBD-ACE2 attachment (RBD of viral spike protein and ACE2 receptor) (Severe acute respiratory syndrome coronavirus 2, UniProt P0DTC2). The data set is described as follows: cell-based. Set-up: species or system SARS-CoV-2; human. As to conditions: for inhibition at 20 µM / inhibition at 100 µM: HeLa; for inhibition at 20 µM: read-out: Positive Screening RBD Attachment Assay % Inhibition (20 μM); for inhibition at 100 µM: read-out: Positive Screening RBD Attachment Assay % Inhibition (100 μM).

The subject of data set [2] is spike-based pseudovirus (wild type) on SmBiT-ACE2 HeLa cells. The data set is described as follows: microbe, parasite or virus in culture. In kind it is cell-based, SARS-CoV-2. As to conditions: Pseudovirus, HeLa.
The test system of a further data set is SARS-CoV-2. The data set is described as follows: microbe, parasite or virus in culture. To be noted: for EC50: Severe acute respiratory syndrome coronavirus 2, Vero C1008, 120 h, read-out: EC50 SARS-CoV-2 PRNT. In kind it is cell-based.
Another data set in a line: in vitro. To be noted: African green monkey, VeroE6 CC50, VERO E6 cells, CellTiter-Glo.
A further data set relates to VERO E6 cells. To be noted: VeroE6 cells.
Another data set relates to NanoBiT. The data set is described as follows: Negative screening HiBiT assay (NanoBiT activity). To be noted: for Negative Screening HiBiT Assay % Inhibition (20 μM): 20 μM drug; for Negative Screening HiBiT Assay % Inhibition (100 μM): 100 μM drug; for Negative Screening HiBiT Assay INHIBIT NanoBiT: >70% inhibition in 100 μM, then including >35% inhibition at 20 μM. The class given is cell-based. On the technique in general: HiBiT is a short tag that completes a luciferase, so light tracks the accessible tagged protein.

Setting [3] is: read-out: EC50 Pseudovirus Wild Type.

By EC50 is commonly meant the concentration needed to bring the measured effect to its halfway point. What is called inhibition is the relative decrease from the control value, in per cent. For orientation: CC50 means the concentration that lowers cell viability or growth by half. Low readings indicate greater toxicity to the cells, high ones lower toxicity to the cells. As to `Cc1cc(C#N)cc(C)c1Oc1nc(Nc2ccc(C#N)cc2)nc(N)c1Br` [Etravirine], in data set [1], a half-maximal response (EC50) required 2.3 µM, the “Positive Screening RBD Attachment Assay Dose Response” value was “Yes”, the inhibition at 20 µM was over 70% and the inhibition at 100 µM is 90%. For the same molecule, in data set [2] (setting [3]), the EC50 stood at 6 nM. For the same molecule, in data set [2] (read-out: EC50 pseudovirus neutralization assay), the EC50 worked out at 5.8 nM. Besides, in the data set on SARS-CoV-2, the 50% effective concentration (EC50) amounted to 7.7 µM. This molecule also gave a 50% cytotoxic concentration (CC50) in the data set “in vitro” of over 100 µM. The “Cytotoxicity to VeroE6 cells” value in the data set on VERO E6 cells was “not toxic”. In addition, in the data set on NanoBiT, the “Negative Screening HiBiT Assay % Inhibition (20 μM)” value is given as 0%, the “Negative Screening HiBiT Assay % Inhibition (100 μM)” value is 31% and the “Negative Screening HiBiT Assay INHIBIT NanoBiT” value was “No”.
In the case of `C[C@@H]1CCO[C@H]2Cn3cc(C(=O)NCc4ccc(F)cc4F)c(=O)c(O)c3C(=O)N12` [Dolutegravir sodium], in data set [1], the EC50 came to 14.6 µM, the “Positive Screening RBD Attachment Assay Dose Response” value was “Yes”, the inhibition at 20 µM is over 70% and the inhibition at 100 µM stood at 96%. Besides, in data set [2] (read-out: EC50 (nM) (Wild type)), the half-maximal effective concentration (EC50) was determined as 22.9 nM. In addition, the half-maximal effective concentration (EC50) in data set [2] (setting [3]) is 40 nM. Besides, the EC50 in the data set with SARS-CoV-2 turned out to be 4.2 µM. In addition, the CC50 in “in vitro” was over 100 µM. For the same molecule, the “Cytotoxicity to VeroE6 cells” value with VERO E6 cells is on record as “not toxic”. For the same molecule, in the data set on NanoBiT, the “Negative Screening HiBiT Assay % Inhibition (20 μM)” value is reported as 1%, the “Negative Screening HiBiT Assay % Inhibition (100 μM)” value was determined as 62% and the “Negative Screening HiBiT Assay INHIBIT NanoBiT” value is recorded as “No”.
Turning to `CC[C@H](C)[C@H]1O[C@]2(CC[C@@H]1C)C[C@@H]1C[C@@H](C/C=C(\C)[C@@H](O[C@H]3C[C@H](OC)[C@@H](O[C@H]4C[C@H](OC)[C@@H](O)[C@H](C)O4)[C@H](C)O3)[C@@H](C)/C=C/C=C3\CO[C@@H]4[C@H](O)C(C)=C[C@@H](C(=O)O1)[C@]34O)O2` [Ivermectin], in data set [1], the “Positive Screening RBD Attachment Assay Dose Response” value is given as “Yes”, the inhibition at 20 µM worked out at 29% and the inhibition at 100 µM was 68%. Also, in data set [1] (read-out: EC50 RBD Attachment), the EC50 was determined as 22.8 µM. In addition, the EC50 in data set [2] (setting [3]) came out at 5900 nM. For the same molecule, the “blocked SARS-CoV-2 infection (PRNT)” value in the data set with SARS-CoV-2 (10 μM) is on record as 60%. Half-maximal cytotoxicity in the data set “in vitro” (CC50) was put at 11.9 µM. For the same molecule, in the data set on NanoBiT, the “Negative Screening HiBiT Assay % Inhibition (20 μM)” value is listed as 0%, the “Negative Screening HiBiT Assay % Inhibition (100 μM)” value is recorded as 4% and the “Negative Screening HiBiT Assay INHIBIT NanoBiT” value is given as “No”.
